In patent publication US7090790B2, “Chemiluminescent composition producing white light” (priority 2004, dated 2006):

Assays:
[1] = Solubility in chloroform at 20° C., Formula 2 vs Formula 3; format: physicochemical; conditions: in 100 mL of chloroform at 20° C.
[2] = Intensity of white light, Experimental Example 2 (−25° F.); conditions: low temperature
Description: The oxalate solutions and the activator solutions prepared in Examples 1 and 2, and Comparative Examples 1 and 2 were mixed in a volume ratio of 3:1 to chemiluminescent compositions, respectively.
The procedure was repeated in the same manner as in Experimental Example 1, except that the temperature of the thermostat was set to −25° F.

| SMILES | Solubility, 1,6,7,12-tetrahaloperylenedicarboximide of Formula 3 (X is Cl) [1] [g] | precipitation of the dye in the chemiluminescent composition [2] |
| --- | --- | --- |
| CCCCCCCCCCCCN1C(=O)c2cc(Cl)c3c4c(Cl)cc5c6c(cc(Cl)c(c7c(Cl)cc(c2c37)C1=O)c64)C(=O)N(CCCCCCCCCCCC)C5=O [Dodecyl (Formula 3), N,N′-didodecyl-1,6,7,12-tetrachloroperylene-3,4,9,10-dicarboximide] | 65 | no precipitates were formed even at low temperature |
| CCCCCCN1C(=O)c2cc(Cl)c3c4c(Cl)cc5c6c(cc(Cl)c(c7c(Cl)cc(c2c37)C1=O)c64)C(=O)N(CCCCCC)C5=O [Hexyl (Formula 3), N,N′-dihexyl-1,6,7,12-tetrachloroperylene-3,4,9,10-dicarboximide] | 72 | – |
